According to patent US5460697A, “Method of pulping wood chips with a fungi using sulfite salt-treated wood chips” (priority 1994, dated 1995):

Legend:
[1] = system: indigenous microorganisms; experiment: Contaminants level of sodium bisulfite-soaked aspen chips (plating before inoculation and at harvest); assay type: cell-based, endogenous microorganisms of aspen wood chips; settings: for contaminants level at harvest (in words): fungus-treated chips with sodium bisulfite
Procedure: (§1) Three batches of aspen wood chips were prepared, each batch containing 1800 g dry weight of chips. One batch was soaked in 18 kg of water containing no sodium bisulfite. A second batch was soaked in 18 kg of water containing 28.125 g of sodium bisulfite. A third batch was soaked in 18 kg of water containing 56.250 g of sodium bisulfite. After the chips had soaked, we performed our experiments on 1600 g of chips (dry weight basis). The soaking was done at room temperature for about 1 hour. After soaking, water or sodium bisulfite solution was drained through a mesh. Based on the amount of water or sodium bisulfite solution absorbed by the chips, we calculated that 1600 g dry weight of chips retained about 600 or 1200 μg/ml of sodium bisulfite. Thus, there were three treatments: 1) chips without sodium bisulfite (water only), 2) chips containing 600 μg/ml of sodium bisulfite, and 3) chips containing 1200 μg/ml of sodium bisulfite.
Bioreactors containing soaked chips were left at room temperature for 48 h. U.S. Pat. No. 5,055,159 describes a suitable bioreactor. (U.S. Pat. No. 5,055,159 is hereby incorporated by reference.) Prior to inoculation, chips were pulled out from these bioreactors and plated on potato dextrose and tryptic soya agar plates to measure the contaminants level. These plates were incubated at 27° C. and 65% relative humidity for 24 h.
At harvest, fungus-treated chips with and without sodium bisulfite soaking were plated on potato dextrose and tryptic soya agar plates to determine the contaminants level. These plates were incubated at 27° C. and 65% relative humidity for 72 h. […] High level of sodium bisulfite (1200 μg/ml) caused only 1.7% wood loss, saved 18.4% of electrical energy, improved tear index by 15%, and fiber length by 26% as compared to the control.
We repeated the experiment described above with a four-week incubation. Four batches of aspen wood chips were prepared, each batch containing 3600 g dry weight of chips. One batch was soaked in 36 kg of water containing no sodium bisulfite. Second, third and fourth batches each were soaked in 36 kg of water containing 112.50 g of sodium bisulfite at room temperature for about 1 hour. After soaking, water or sodium bisulfite solution was drained through a mesh. Based on the amount of water or sodium bisulfite solution soaked, we calculated that each batch of 1600 g dry weight of chips retained about 1300 μg/ml of sodium bisulfite. Bioreactors containing soaked chips were left at room temperature for 48 h. The following eight treatments were made:
Prior to inoculation, chips were pulled out from the bioreactors and plated on potato dextrose and tryptic soya agar plates to determine the contaminants level. These plates were incubated at 27° C. and 65% relative humidity for 24 h. […]

[2] = system: C. subvermispora; experiment: Growth of C. subvermispora on sodium bisulfite-treated chips; assay type: cell-based; settings: for growth of C. subvermispora at harvest (in words): fungus-treated chips with sodium bisulfite
Procedure: To prepare a liquid inoculum of C. subvermispora, potato dextrose broth (43.20 g) and yeast extract (13.08 g) were added to 1800 ml of distilled water and mixed well. 300 ml of this medium was poured into six 2800-ml flasks. Each flask was autoclaved for 20 min. at 121° C. After cooling to room temperature, each flask was inoculated with 30 plugs cut into 13-mm diameter plugs from a 10-day old fungal culture on a potato dextrose agar plate. The flasks were then incubated at 27° C. at 65% relative humidity for 10-15 days. Prior to use, the flasks containing the fungal biomass were decanted and washed with sterile distilled water to remove excess medium from the fungus. The fungal biomass was then placed in distilled water and blended in a Waring blender (VWR scientific) twice for 15 seconds each time at high speed, following which distilled water was added to the suspension to make the total volume 500 ml. About 100 grams of this suspension (2.61 g dry weight) was added to each bioreactor containing about 1600 grams of aspen chips measured on a dry weight basis prepared as described below. The blended mycelium was dumped onto the chips and mixed.
as §1, with “After soaking, water or sodium bisulfite solution was drained through a mesh.” left out, “Thus, there were three treatments: 1) chips without sodium bisulfite (water only), 2) chips containing 600 μg/ml of sodium bisulfite, and 3) chips containing 1200 μg/ml of sodium bisulfite.” left out
We repeated the experiment described above with a four-week incubation. […] Based on the amount of water or sodium bisulfite solution soaked, we calculated that each batch of 1600 g dry weight of chips retained about 1300 μg/ml of sodium bisulfite. […]

[3] = system: Phanerochaete chrysosporium BKM-F-1767; experiment: Effect of sodium bisulfite on radial growth and mycelial dry weight of P. chrysosporium; assay type: cell-based
Procedure: 2% agar was added to the medium. The medium was autoclaved for 15 min. and the medium was poured into petri dishes. These plates were then inoculated with a plug cut into 8-mm diameter plugs from a petri dish containing a 5-day-old culture of P. chrysosporium or a petri dish containing a 10-day-old culture of another white-rot fungi. P. chrysosporium-inoculated plates were incubated at 39° C. Plates inoculated with other fungi were incubated at 27° C.

O=S([O-])O.[Na+] [Sodium Bisulfite]
endogenous microorganisms on chips (in words) ([1]; 1200 μg/ml, prior to inoculation, 48 h after soaking, 2-week experiment): no endogenous microorganisms
inhibition of microorganisms prior to inoculation (in words) ([1]; 1300 μg/ml, 4-week experiment): completely inhibited microorganisms
contaminants level at harvest (in words) ([1]; 2 weeks): almost no contamination
contaminants level at harvest (in words) ([1]; 4 weeks): almost no contamination
growth of C. subvermispora at harvest (in words) ([2]; 2 weeks): heavy growth of C. subvermispora
growth of C. subvermispora at harvest (in words) ([2]; 4 weeks): heavy growth of C. subvermispora
growth of white-rot fungi such as C. subvermispora (in words) ([2]; treatment of wood chips, summary): promoted the growth of white-rot fungi
Mycelial Dry Weight 36 ± SD ([3]; 100 μg/ml): 21 ± 3 mg
Radial Growth 24 h ± SD ([3]; 100 μg/ml): 4.30 ± .26 cm
Radial Growth 36h ± SD ([3]; 100 μg/ml): 7.52 ± .27 cm
Mycelial Dry Weight 36 ± SD ([3]; 250 μg/ml): 39 ± 8 mg
Radial Growth 24 h ± SD ([3]; 250 μg/ml): 5.16 ± .28 cm
Radial Growth 36h ± SD ([3]; 250 μg/ml): 8.62 ± .20 cm
Mycelial Dry Weight 36 ± SD ([3]; 500 μg/ml): 36 ± 6 mg
Radial Growth 24 h ± SD ([3]; 500 μg/ml): 5.07 ± .25 cm
Radial Growth 36h ± SD ([3]; 500 μg/ml): 8.68 ± .09 cm
Mycelial Dry Weight 36 ± SD ([3]; 1000 μg/ml): 10 ± 2 mg
Radial Growth 24 h ± SD ([3]; 1000 μg/ml): 1.15 ± .22 cm
Radial Growth 36h ± SD ([3]; 1000 μg/ml): 2.88 ± .42 cm
dry weight of the fungus (in words) ([3]; 250 or 500 μg/ml): increased
radial growth (in words) ([3]; 250 or 500 μg/ml, 24 and 36 h): increased the radial growth of P. chrysosporium
growth of white-rot fungi such as P. chrysosporium (in words) ([3]; summary statement): promoted the growth of white-rot fungi
